This note sets out measurements from ChEMBL document CHEMBL4342407, “Thieno[2,3-d]pyrimidine as a promising scaffold in medicinal chemistry: Recent advances” (Bioorg Med Chem, 2019).

One assay deals with Bacillus subtilis. Nature of the assay: Antibacterial activity against Bacillus subtilis ATCC 6633 assessed as diameter of zone inhibition at 100 ug/ml. In kind it is functional. Particulars: read-out: DIZ.
Another assay relates to Staphylococcus aureus. In words: Antibacterial activity against Staphylococcus aureus ATCC 25923 assessed as diameter of zone inhibition at 100 ug/ml. It is filed as functional. As to conditions: read-out: DIZ.
The next assay deals with Escherichia coli. Nature of the assay: Antibacterial activity against Escherichia coli ATCC 25922 assessed as diameter of zone inhibition at 100 ug/ml. As to conditions: read-out: DIZ. It is filed as functional.
For assay [1], the target named is Cyclin-dependent kinase 2/cyclin E1 (Homo sapiens, UniProt P24941). Nature of the assay: Inhibition of CDK2/cyclin E (unknown origin) expressed in baculovirus infected Sf9 insect cells using GST-Rb as substrate in presence of [33P] ATP incubated for 30 mins.
The species entered for another assay is Homo sapiens. In words: Selectivity ratio of IC50 for CDK2/cyclin E (unknown origin) expressed in baculovirus infected Sf9 insect cells to IC50 for CDK4/cyclin D1 (unknown origin) expressed in baculovirus infected Sf9 insect cells.
Assay [2] deals with Cyclin-dependent kinase 4/cyclin D1 (Homo sapiens, UniProt P11802). In words: Inhibition of CDK4/cyclin D1 (unknown origin) expressed in baculovirus infected Sf9 insect cells using GST-Rb as substrate in presence of [33P] ATP incubated for 30 mins.
In a further assay the test system is A549. Nature of the assay: Antiproliferative activity against human A549 after 18 hrs by MTT assay. In kind it is functional, cell-based. As to conditions: A549, 18 h. Background: Formazan colour is commonly taken as a measure of viable cells.
The subject of the next assay is HCT-116. In words: Antiproliferative activity against human HCT116 after 18 hrs by MTT assay. As to conditions: HCT-116, 18 h. In kind it is functional, cell-based.
Assay [3] relates to MCF7. In words: Antiproliferative activity against human MCF7 after 18 hrs by MTT assay. It is filed as functional, cell-based. Particulars: MCF7, 18 h.
Assay [4] has as its system Rattus norvegicus. In words: Antiinflammatory activity in gamma irradiated rat assessed as reduction in COX-2 level in liver tissue homogenates at 150 mg/kg, ip administered once daily for 7 consecutive days by ELISA (reference value: 89.50 +/- 2.617 ng/ml). It is filed as functional.
The subject of assay [5] is Rattus norvegicus. In words: Antiinflammatory activity in gamma irradiated rat assessed as reduction in serum TNFalpha level at 150 mg/kg, ip administered once daily for 7 consecutive days by ELISA (reference value: 105.07 +/- 3.925 pg/ml). In kind it is functional.
Assay [6] relates to Rattus norvegicus. Nature of the assay: Antiinflammatory activity in gamma irradiated rat assessed as reduction in serum IL-6 level at 150 mg/kg, ip administered once daily for 7 consecutive days by ELISA (reference value: 103.87 +/- 3.273 pg/ml). In kind it is functional. (In general: In an ELISA, binding on a coated surface is turned into a signal by an enzyme label.)
Assay [7] has as its system Rattus norvegicus. In words: Antiinflammatory activity in gamma irradiated rat assessed as reduction in NFkappaB level in liver tissue homogenates at 150 mg/kg, ip administered once daily for 7 consecutive days by ELISA (reference value: 258.33 +/- 4.216 pg/ml). In kind it is functional.
Assay [8] deals with MCF7. In words: Antiproliferative activity against human MCF7 after 24 hrs by MTT assay. In kind it is functional, cell-based. As to conditions: MCF7, 24 h.
Another assay deals with HeLa. In words: Antiproliferative activity against human HeLa after 24 hrs by MTT assay. It is filed as functional, cell-based.
The next assay has as its system HepG2. Nature of the assay: Antiproliferative activity against human HepG2 after 24 hrs by MTT assay. It is filed as functional, cell-based. As to conditions: HepG2, 24 h.
A short description of assay [9]: Inhibition of PTK (unknown origin) using poly-Glu-Tyr (PGT) as substrate by ELISA. On the set-up: species or system Homo sapiens.
The next assay concerns HEp-2. Nature of the assay: Antiproliferative activity against human Hep2 after 24 hrs by MTT assay. In kind it is functional, cell-based. Particulars: HEp-2, 24 h.
The subject of the next assay is PC-3. In words: Antiproliferative activity against human PC3 after 24 hrs by MTT assay. As to conditions: PC-3, 24 h. In kind it is functional, cell-based.
In assay [10] the test system is Human alphaherpesvirus 1. Nature of the assay: Antiviral activity against Herpes simplex virus 1 at 50 ug/10^5. It is filed as functional.
Assay [11] concerns Human alphaherpesvirus 1. Nature of the assay: Antiviral activity against Herpes simplex virus 1 at 20 ug/10^5. In kind it is functional.
The nature of assay [12]: Inhibition of Influenza A virus H3N2 Neuraminidase.

Structures are written as SMILES.

Sequence of Cyclin-dependent kinase 4/cyclin D1 (P11802 whole entry): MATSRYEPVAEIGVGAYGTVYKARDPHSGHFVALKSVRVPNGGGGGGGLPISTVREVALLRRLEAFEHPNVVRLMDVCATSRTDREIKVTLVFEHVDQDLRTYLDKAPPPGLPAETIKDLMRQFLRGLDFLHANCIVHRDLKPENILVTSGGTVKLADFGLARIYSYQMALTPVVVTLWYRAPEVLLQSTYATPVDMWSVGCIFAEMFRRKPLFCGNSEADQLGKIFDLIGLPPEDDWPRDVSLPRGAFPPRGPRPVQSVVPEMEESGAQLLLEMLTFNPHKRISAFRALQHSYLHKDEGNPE
Sequence of Cyclin-dependent kinase 4/cyclin D1 (P24385 whole entry, further chain): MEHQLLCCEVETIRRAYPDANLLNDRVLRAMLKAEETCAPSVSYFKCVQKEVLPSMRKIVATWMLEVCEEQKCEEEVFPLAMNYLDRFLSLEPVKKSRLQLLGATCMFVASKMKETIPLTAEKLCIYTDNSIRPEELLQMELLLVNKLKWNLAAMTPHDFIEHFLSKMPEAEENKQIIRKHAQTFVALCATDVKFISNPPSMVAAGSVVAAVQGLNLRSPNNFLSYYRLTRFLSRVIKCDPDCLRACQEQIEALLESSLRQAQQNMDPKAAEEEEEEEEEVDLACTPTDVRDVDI

`Cc1c(-c2nnc(-c3ccccc3)o2)sc2c1c(=O)n(-c1ccccc1)c(=O)n2Cc1nc(-c2ccccc2)no1`: the zone of inhibition at 100 µg/mL in the assay with Bacillus subtilis was found to be 17 mm; in the assay with Staphylococcus aureus it was 15 mm; in the assay with Escherichia coli it was 14 mm.
Broadly, the IC50 is the concentration needed to halve the response being measured. As for `CNCc1csc(/C=N/Nc2ncnc3sc(C(C)C(C)C)cc23)n1` (centres undefined), the IC50 in assay [1] was 0.88 µM; in assay [2], 0.022 µM. The Ratio IC50 in the assay listed under Homo sapiens was determined as 40.
Consider `Cc1ccc(-c2cc(COc3ncnc4sc(C)cc34)on2)cc1`, for which the IC50 with A549 was 144 µM; in the assay with HCT-116, 53.9 µM; in the assay on MCF7 [3], 13.5 µM.
As for `Cc1c(-c2nnc(-c3ccccc3)o2)sc2c1c(=O)n(-c1ccccc1)c(=O)n2Cc1nc(-c2ccc(Cl)cc2)no1`, the zone of inhibition at 100 µg/mL came out at 17 mm in the assay on Bacillus subtilis, 15 mm in the assay on Staphylococcus aureus and 14 mm in the assay on Escherichia coli.
With `CCOC(=O)c1sc2ncnc(Cl)c2c1C`, in the assay with Rattus norvegicus [4], the “COX-2 level in liver homogenate” value came to 36.33 ng/mL. Also, in the assay with Rattus norvegicus [5], the “Serum TNFalpha level” value was found to be 41.53 pg/mL. For the same molecule, the “Serum IL-6 level” value in the assay on Rattus norvegicus [6] was 50.1 pg/mL. Further, in the assay with Rattus norvegicus [7], the “NFkappaB level in liver tissue” value came out at 138.17 pg/mL.
Take `COc1cc(/C=C/C(=O)c2sc3nc(S)n(-c4ccccc4)c(=O)c3c2C)cc(OC)c1OC`: the IC50 with MCF7 [8] stood at 17.1 µM; in the assay on HeLa, 12.9 µM; in the assay with HepG2, 20.6 µM; in assay [9], 203 µM; in the assay with HEp-2, 22.1 µM; in the assay on PC-3, 16.4 µM.
In the case of `Cc1cc2c(OCc3cc(-c4ccc(Cl)cc4)no3)ncnc2s1`, the IC50 in the assay on A549 amounted to 2.79 µM; in the assay on HCT-116 it was 6.69 µM.
As to `COCCSc1ncnc2sc3c(c12)-c1ccccc1CC3`, the Activity is on record as 30% with Human alphaherpesvirus 1 [10] and 15% in the assay with Human alphaherpesvirus 1 [11].
Taken in the same sequence, the figures for `OCCSc1ncnc2sc3c(c12)-c1ccccc1CC3` were 30% and 5%.
`CCC(C)c1cc2c(N/N=C/c3nc(CNC)cs3)ncnc2s1` (centres undefined): the IC50 in assay [1] turned out to be 0.44 µM; in [2], 0.029 µM. Also, in the assay filed under Homo sapiens, the Ratio IC50 was 15.2.
Take `CCc1cc2c(OCc3cc(-c4ccc(Cl)cc4)no3)ncnc2s1`: the IC50 came out at 45.5 µM in the assay with A549 and 33.3 µM with HCT-116.
Take `CCOC(=O)c1sc2ncnc(N[C@@H](CC(=O)O)C(=O)O)c2c1C`: in the assay with Rattus norvegicus [4], the “COX-2 level in liver homogenate” value was determined as 40.5 ng/mL. In addition, the “Serum TNFalpha level” value in the assay on Rattus norvegicus [5] amounted to 51.35 pg/mL. Further, in the assay with Rattus norvegicus [6], the “Serum IL-6 level” value came to 59.85 pg/mL. Moreover, the “NFkappaB level in liver tissue” value with Rattus norvegicus [7] came out at 88.17 pg/mL.
As for `Cc1ccc(/C=C/C(=O)c2sc3nc(S)n(-c4ccccc4)c(=O)c3c2C)cc1`, the IC50 with MCF7 [8] was 6.84 µM; in the assay with HeLa, 4.3 µM; in the assay on HepG2, 7.99 µM; in assay [9] it was 136 µM; in the assay on HEp-2 it was 5.4 µM; in the assay with PC-3, 7.71 µM.
For `CC(N)c1csc(/C=N/Nc2ncnc3sc(C(C)(C)CF)cc23)n1` (centres undefined), the IC50 worked out at 0.68 µM in assay [1] and 0.046 µM in [2]. Also, the Ratio IC50 in the assay listed under Homo sapiens came to 14.7.
Turning to `COCCSc1nc(C)nc2sc3c(c12)-c1ccccc1CC3`, the figures for the Activity in the assay on Human alphaherpesvirus 1 [10] and in the assay on Human alphaherpesvirus 1 [11] were 45% and 5%, respectively.
As for `O=C1c2ccccc2C(=O)N1Nc1nc(-c2c[nH]c3ccccc23)nc2sc3c(c12)CCCC3`, inhibition in assay [12] was half-maximal at 0.067 µM (IC50).
